Measurements taken from patent US20150374702A1 (CATHOLIC UNIVERSITY INDUSTRY ACADEMIC COOPERATION FOUNDATION, priority 2013, published 2015).

How the values were obtained:
Capan-1 xenograft tumor [1] = experiment: Suppression of tumor growth by doxorubicin or liposomal doxorubicin after pentoxifylline pretreatment; type: in vivo, BALB/c nu/nu mice; settings: doxorubicin 8 mg/kg i.v., with or without pentoxifylline pretreatment 100 mg/kg/d for two weeks; normalized to volume at treatment start; P<0.05
Source text: (§1) Female BALB/c nu/nu mice (5 to 6 weeks old) were purchased from Orient Bio Inc. (Seongnam City, Gyeonggi-do, Korea), and were raised in a germ-free animal breeding facility at the Catholic University of Korea, Catholic Medical Center (Seoul, Korea). The animals were raised in a standard state, and supplied with food and water ad libitum. The animals were taken care of in accordance with the guidelines of the Institutional Animal Care and Use Committee (IACUC) of School of Medicine of the Catholic University of Korea (Approval Number; CUMC-2010-0141-01). For induction of tumor, Capan-1 cells were harvested after the trypsin treatment, 5×10^6 living cells were subcutaneously injected into the right flanks of the mice. After tumor was induced, the mice were sacrificed, tumor samples were obtained, and experiments were performed according to each Example to be described below.

CD31 = experiment: Blood vessel density by CD31 immunostaining in tumor sections; type: in vivo, BALB/c nu/nu mice; settings: with versus without pentoxifylline
Source text: as §1

TGF-β1 [2] = experiment: Immunohistochemical staining of TGF-β1 in tumor sections; type: in vivo, mice
Source text: as §1, with “below. […] Immunohistochemical staining for α-SMA, TGF-β1, and CTGF was performed using Dako Envision Detection System ([…], DAKO). Paraffin-embedded, formalin fixed samples were cut into sections having a thickness of 3 μm, deparaffinized and rehydrated. For antigen retrieval, a pressure cooker of a microwave method was used as a target retrieval solution ([…], DAKO) for 5 minutes (pH 9.0), and cooled at room temperature for 20 minutes. […]” for “below.”

TGF-β1 [3] = experiment: Total and active TGF-β1 in tumor homogenate (ELISA); type: in vivo, mice; settings: ELISA of tumor homogenate
Source text: as §1
Frozen tumors were cut into small pieces, and homogenized using Precellys 24 homogenizer (Bertin Technologies) in Tissue Extraction Reagent I (Invitrogen) containing protease inhibitor cocktail (Complete Mini, Roche). […] Total protein concentrations were determined by BCA protein assay kit (Pierce). Total and active TGF-β1 concentrations were determined using TGF-β1 ELISA kit (eBioscience) according to the manufacturer's protocol.

α-SMA = experiment: Immunohistochemical staining of α-SMA in tumor sections; type: in vivo, mice; settings: pentoxifylline for two weeks; p<0.001
Source text: as §1, with “below. […] Immunohistochemical staining for α-SMA, TGF-β1, and CTGF was performed using Dako Envision Detection System ([…], DAKO). Paraffin-embedded, formalin fixed samples were cut into sections having a thickness of 3 μm, deparaffinized and rehydrated. For antigen retrieval, a pressure cooker of a microwave method was used as a target retrieval solution ([…], DAKO) for 5 minutes (pH 9.0), and cooled at room temperature for 20 minutes. […]” for “below.”

[4] = system: mouse COLIA1 (collagen type I, alpha 1); experiment: Collagen type I mRNA expression in tumor (quantitative real-time RT-PCR); type: in vivo; settings: pentoxifylline pretreatment for two weeks; P<0.02
Source text: as §1, with “After tumor was induced, the mice were sacrificed, tumor samples were obtained, and experiments were performed according to each Example to be described below.” left out
(§2) In order to confirm the mRNA expression level of collagen type I, RT-PCR was performed. For the quantitative real-time RT-PCR analysis, total RNAs were isolated from tumor homogenates using the Trizol method and quantified by Nanodrop spectrophotometer (ND-1000). After 1 μg of total RNAs was reverse transcribed from the tissue with AccuPower CycleScript RT PreMix (Bioneer), a quantitative real-time polymerase chain reaction was performed using the LightCycler 480 Real-Time PCR System II (Roche) with SYBR Green Master mix (Roche) according to the manufacturer's recommendation. […]

mouse TGF-β1 = experiment: TGF-β1 mRNA expression in tumor (quantitative real-time RT-PCR); type: in vivo; settings: pentoxifylline versus control; direction not stated at b84
Source text: as §1, with “After tumor was induced, the mice were sacrificed, tumor samples were obtained, and experiments were performed according to each Example to be described below.” left out
as §2, with “For” for “In order to confirm the mRNA expression level of collagen type I, RT-PCR was performed. For”
All expression data were normalized using the GAPDH expression. The relative gene expression was quantified using the ΔΔCt method (2-ΔΔCt).

collagen type I = experiment: Collagen type I content in tumor sections (immunofluorescence); type: in vivo, mice
Source text: as §1

Capan-1 xenograft tumor [5] = experiment: Suppression of tumor growth by combinatory treatment of pentoxifylline and gemcitabine; type: in vivo, BALB/c nu/nu mice; settings: pentoxifylline alone 100 mg/kg/d i.p., 28 days
Source text: as §1
The tumor size (mm^3) was calculated by using the equation: V=(a×b^2)/2 (a is the largest diameter of tumor, and b is the smallest diameter of tumor). The relative tumor size was normalized with respect to the volume when a drug treatment of Capan-1 xenograft tumor was initiated. At least three mice per group were used, and the results were presented as an average standard error (SE). The statistical significance was determined by using a 2-sample t-test inferred from the Microsoft Excel 2007. […]

CTGF = experiment: Immunohistochemical staining of CTGF in tumor sections; type: in vivo, mice; settings: pentoxifylline for two weeks; p<0.05
Source text: as §1, with “below. […] Immunohistochemical staining for α-SMA, TGF-β1, and CTGF was performed using Dako Envision Detection System ([…], DAKO). Paraffin-embedded, formalin fixed samples were cut into sections having a thickness of 3 μm, deparaffinized and rehydrated. For antigen retrieval, a pressure cooker of a microwave method was used as a target retrieval solution ([…], DAKO) for 5 minutes (pH 9.0), and cooled at room temperature for 20 minutes. […]” for “below.”

| Compound | relative tumor size at day 23 (Capan-1 xenograft tumor [1]) | blood vessel density exhibited by CD31 immunostaining (CD31) | effect on TGF-β1 immunohistochemical staining in the tumor tissue (TGF-β1 [2]) | effect on active TGF-β1 level in the tumor tissue (TGF-β1 [3]) | effect on total TGF-β1 level in the tumor tissue (TGF-β1 [3]) | reduction of immunostaining of α-SMA in the tumor sections (α-SMA) | reduction of mRNA expression of collagen I compared to the control group [4] | TGF-β1 mRNA expression (mouse TGF-β1) | collagen content at high dose (100 mg/kg) versus low dose (50 mg/kg) (collagen type I; i.p. for two weeks, P<0.05) | collagen type I contents in central and marginal regions of the tumor sections (collagen type I; pentoxifylline i.p. for two weeks versus saline) | anti-tumor effects compared to the control group of saline treatment (Capan-1 xenograft tumor [5]) | reduction of immunostaining of CTGF in the tumor sections (CTGF) |
| --- | --- | --- | --- | --- | --- | --- | --- | --- | --- | --- | --- | --- |
| COc1cccc2c1C(=O)c1c(O)c3c(c(O)c1C2=O)C[C@@](O)(C(=O)CO)C[C@@H]3O[C@H]1C[C@H](N)[C@H](O)[C@H](C)O1 [doxorubicin] | 1.52 |  |  |  |  |  |  |  |  |  |  |  |
| CC(=O)CCCCn1c(=O)c2c(ncn2C)n(C)c1=O [pentoxifylline, 1-(5-oxohexyl)-3,7-dimethylxanthine] |  | no difference between groups | no effects | no effects | no effects | 66% | 72% | big difference | slightly lower | reduced | anti-tumor effects did not appear | 25% |
